Test results reported in patent US20070092907A1, “Methods of screening compound probes” (priority 2005, published 2007).
“Also recorded” adds a separate entry of the source.

What was measured:
[1] = system: rat glioma C6 cells; assay: C6 cell uptake of phosphonium cations determined by MALDI-TOF-MS; format: cell-based; conditions: for cell uptake / accumulation (in words): up to 90 min; for percent cell uptake: plateau at ~90 minute after incubation
Procedure: MALDI-TOF Mass Spectrometry: MALIDI-TOF-MS experiments were performed on a Perseptive Voyager-DE RP Biospectrometry instrument (Framingham, Mass.). On the MALDI-TOF-MS target plate, 1 μL each of sample solution and 1 μL of the matrix were mixed. […] For each analysis, the laser spot randomly hit the sample to generate an averaged MALDI-TOF-MS spectrum. Three spectra were produced for each sample, and analyte to internal standard response ratios were averaged.
C6 cells (0.5×10^6/50 μL) were incubated with 10 μL 100 μM stock phosphonium salts solution (5 μM final concentration) and 140 μL HEPES buffer from 10 to 90 min at room temperature. The cells were centrifuged (250×g) for three minutes and washed twice with cold PBS buffer at specified times. Cell pellets were then lysed with 150 μL cold spectral grade water, followed by freezing in dry ice. Right before the MALDI-TOF-MS analysis, the frozen cell solution was thawed and centrifuged at 12000×g for 5 min. An aliquot of 90 μL of cell lysate and 10 μL of 10 μM internal standard MeTPP were mixed together, and 1 μL of solution was subjected to MALDI-TOF-MS analysis. Samples collected from three independent cell lysates were prepared for each study and subjected for MALDI-TOF-MS analysis.
Then they were diluted with C6 cell lysate (0.5×10^6 cells per 150 μL, these cells were not incubated with any phosphonium compound prior to lysis) to make various concentrations of compound and stored at 0° C. One micromolar MeTPP in 10 μL volume, which was used as internal standard, and 10 μL phosphonium cations with concentrations ranging from 0.1 μM-1.5 μM were mixed together thoroughly. Subsequently, 1 μL aliquot and 1 μL matrix αCHCA were deposited on the target plate and dried for MALDI-TOF-MS analysis. Triplicate samples were prepared and analyzed.

[2] = system: C6 cells; assay: Mitochondrial and plasma membrane potential dependent uptake in C6 cells (CCCP, valinomycin, high K+ HEPES buffer), MALDI-TOF-MS; format: cell-based, rat; conditions: for decrease in uptake on depolarization of the plasma membrane (high K+ vs low K+ buffer): 90 min exposure time; for effect of CCCP on uptake: CCCP at 1 μM concentration; for nature of uptake (membrane potential dependence): C6 cells, CCCP, valinomycin, high K+ buffer
Procedure: K^+-ionophore valinomycin was dissolved in ethanol and also diluted with low K^+ buffer. Final concentrations of ethanol and DMSO were below 0.1%. Varying concentrations of CCCP and valinomycin were added to the 0.5×10^6 cells in low K^+ HEPES buffer 30 min prior to the start of the experiment. […] The viability and the integrity of the cells after treatment with inhibitors and high K^+ buffer were examined using Trypan blue.

[3] = system: C6 cells; assay: C6 cell uptake of 3H-TPP by scintillation counting; format: cell-based, rat; conditions: 5 μM, 25° C., 90 min
Procedure: Cell Uptake of ^3H-tetraphenylphosphonium (^3H-TPP): C6 cell uptake of ^3H-TPP was also performed for direct comparison with cell uptakes of TPP and FTPP determined through MALDI-TOF-MS. Briefly, 0.5×10^6 cells were incubated with 5 μM ^3H-TPP [^3H-TPP was spiked with TPP to make a final concentration of 12.21 GBq/mmol (0.33 Ci/mmol)] from 10 to 90 min in a 200 μL HEPES buffer at room temperature. Cell lysate was prepared using the same procedure as described in the Cell Uptake Studies of Phosphonium Cations section, and the radioactivity of cell lysate was counted. Triplicate samples were obtained for all uptake studies. Data were expressed as the accumulation of the amount of probe in each cell or percent cell uptake (fmols/cell, % cell uptake). ^3H analyses were performed with a Beckman LS-6500 liquid scintillation counter with Biosafe II scintillation fluid (Research Products International, Mount prospect, Ill.). The attenuation and quenching effects resulting from the cell lysate used in this experiment were determined to be negligible, and the disintegration per minute (dpm) was obtained by correcting for background activity and efficiency (69.3% for ^3H).

Compound: CCCC[P+](CCCC)(CCCC)CCCC.[Br-] [TBuP, tetrabutylphosphonium bromide]
- decreased cellular accumulation compared to TPP ([1]; 5 μM, C6 cells): ~18 fold
- cell uptake / accumulation (in words) ([1]; 5 μM, C6 cells): lower cell uptake
- cell uptake / accumulation (in words) ([1]; 5 μM, C6 cells, listed as TBuPP): very low cell accumulaiton

Compound: Cl.[Cl-].c1ccc([P+](Cc2ccccn2)(c2ccccc2)c2ccccc2)cc1 [PyTPP, triphenyl(2-pyridylmethyl)phosphonium chloride hydrochloride]
- uptake compared with tetraphenylphosphonium analogs (TPP and FTPP) ([1]; 5 μM, C6 cells): much lower uptake

Compound: Fc1ccc(C[P+](c2ccccc2)(c2ccccc2)c2ccccc2)cc1.[I-] [FBnTP, 4-fluorobenzyl-triphenylphosphonium iodide]
- uptake compared with tetraphenylphosphonium analogs (TPP and FTPP) ([1]; 5 μM, C6 cells): much lower uptake
- decrease in uptake on depolarization of the plasma membrane (high K+ vs low K+ buffer) ([2]; 5 μM probe): 1.5 fold
- effect of CCCP on uptake ([2]; 5 μM probe): can also be inhibited
- nature of uptake (membrane potential dependence) [2]: electrogenic and driven by the plasma and mitochondrial membrane potentials

Compound: ^3H-tetraphenylphosphonium [^3H-TPP]
- time course of uptake by scintillation counting compared with MALDI-TOF-MS of TPP [3]: almost identical pattern and the same levels of uptake

Compound: CCCC[P+](c1ccccc1)(c1ccccc1)c1ccccc1.[Cl-] [BuTPP, butyltriphenylphosphonium chloride]
- uptake compared with tetraphenylphosphonium analogs (TPP and FTPP) ([1]; 5 μM, C6 cells): much lower uptake

Compound: Fc1ccc([P+](c2ccccc2)(c2ccccc2)c2ccccc2)cc1 [FTPP, 4-Fluorophenyltriphenyl phosphonium]
- accumulation relative to MeTPP ([1]; 5 μM, C6 cell culture): 8 times
- cell uptake relative to that of TPP ([1]; 5 μM, C6 cells): over 80%
- percent cell uptake ([1]; 5 μM, C6 cells): 9.33%
- cell uptake / accumulation (in words) ([1]; 5 μM, C6 cells): good cell uptake; also recorded: higher C6 cell uptake than both F4TPP and FBnTP
- normalized uptake in presence of valinomycin ([2]; 5 μM probe, 10 μM valinomycin, low K+ HEPES buffer, one hour incubation): about 72.8±3.6%
- normalized uptake in presence of CCCP ([2]; 5 μM probe, 50 μM CCCP, low K+ HEPES buffer, one hour incubation): about 27.3±2.3%
- decrease in uptake on depolarization of the plasma membrane (high K+ vs low K+ buffer) ([2]; 5 μM probe): 3.5 fold
- effect of CCCP on uptake ([2]; 5 μM probe): significantly inhibited
- effect of valinomycin on uptake ([2]; 5 μM probe, valinomycin at 1 μM concentration): significantly inhibited
- nature of uptake (membrane potential dependence) [2]: electrogenic and driven by the plasma and mitochondrial membrane potentials

Compound: O=C(O)CCCC[P+](c1ccccc1)(c1ccccc1)c1ccccc1.[Br-] [CoTPP, (4-carboxybutyl)triphenyl-phosphonium bromide]
- cell uptake / accumulation (in words) ([1]; 5 μM, C6 cells): either does not accumulate or accumulates minimally
- detection of compound in cell lysate by MALDI-TOF-MS ([1]; C6 cell lysate after incubation with compound): could not be identified

Compound: Fc1ccc([P+](c2ccc(F)cc2)(c2ccc(F)cc2)c2ccc(F)cc2)cc1.[I-] [F4TPP, Tetra-4-fluorophenylphosphonium iodide]
- decrease in uptake on depolarization of the plasma membrane (high K+ vs low K+ buffer) ([2]; 5 μM probe): 3.0 fold
- effect of CCCP on uptake ([2]; 5 μM probe): can also be inhibited
- nature of uptake (membrane potential dependence) [2]: electrogenic and driven by the plasma and mitochondrial membrane potentials

Compound: [Br-].c1ccc([P+](c2ccccc2)(c2ccccc2)c2ccccc2)cc1 [TPP, tetraphenylphosphonium bromide, reference compound]
- amount accumulated per cell ([1]; 5 μM, 10 mins post incubation): 0.11 fmol TPP per cell
- incubation time to maximum / steady-state uptake ([1]; 5 μM, C6 cells): 60 min
- percent cell uptake ([1]; 5 μM, C6 cells): 11.44%

Compound: C[P+](c1ccccc1)(c1ccccc1)c1ccccc1.[Br-] [MeTPP, methyltriphenyl phosphonium bromide, reference compound]
- percent cell uptake ([1]; 5 μM, C6 cells): 1.06%

Compound: BrCCCC[P+](c1ccccc1)(c1ccccc1)c1ccccc1.[Br-] [BrTPP, (4-bromobutyl) triphenyl-phosphine bromide]
- uptake compared with tetraphenylphosphonium analogs (TPP and FTPP) ([1]; 5 μM, C6 cells): much lower uptake
